Experimental data published in PMC10840383, “Clinical features, functional consequences, and rescue pharmacology of missense GRID1 and GRID2 human variants” (Human Molecular Genetics, 2023).
Entries after “also recorded” stand apart in the source; their conditions may differ.

Target: T1, GluD2-A654T-D535E (Rattus norvegicus, UniProt Q63226, A654T/D535E)
T1 construct: expressed in transfected cells; host or cells: Xenopus laevis oocytes injected with cRNA
T1 sequence (Q63226 24-1007 D535E/A654T): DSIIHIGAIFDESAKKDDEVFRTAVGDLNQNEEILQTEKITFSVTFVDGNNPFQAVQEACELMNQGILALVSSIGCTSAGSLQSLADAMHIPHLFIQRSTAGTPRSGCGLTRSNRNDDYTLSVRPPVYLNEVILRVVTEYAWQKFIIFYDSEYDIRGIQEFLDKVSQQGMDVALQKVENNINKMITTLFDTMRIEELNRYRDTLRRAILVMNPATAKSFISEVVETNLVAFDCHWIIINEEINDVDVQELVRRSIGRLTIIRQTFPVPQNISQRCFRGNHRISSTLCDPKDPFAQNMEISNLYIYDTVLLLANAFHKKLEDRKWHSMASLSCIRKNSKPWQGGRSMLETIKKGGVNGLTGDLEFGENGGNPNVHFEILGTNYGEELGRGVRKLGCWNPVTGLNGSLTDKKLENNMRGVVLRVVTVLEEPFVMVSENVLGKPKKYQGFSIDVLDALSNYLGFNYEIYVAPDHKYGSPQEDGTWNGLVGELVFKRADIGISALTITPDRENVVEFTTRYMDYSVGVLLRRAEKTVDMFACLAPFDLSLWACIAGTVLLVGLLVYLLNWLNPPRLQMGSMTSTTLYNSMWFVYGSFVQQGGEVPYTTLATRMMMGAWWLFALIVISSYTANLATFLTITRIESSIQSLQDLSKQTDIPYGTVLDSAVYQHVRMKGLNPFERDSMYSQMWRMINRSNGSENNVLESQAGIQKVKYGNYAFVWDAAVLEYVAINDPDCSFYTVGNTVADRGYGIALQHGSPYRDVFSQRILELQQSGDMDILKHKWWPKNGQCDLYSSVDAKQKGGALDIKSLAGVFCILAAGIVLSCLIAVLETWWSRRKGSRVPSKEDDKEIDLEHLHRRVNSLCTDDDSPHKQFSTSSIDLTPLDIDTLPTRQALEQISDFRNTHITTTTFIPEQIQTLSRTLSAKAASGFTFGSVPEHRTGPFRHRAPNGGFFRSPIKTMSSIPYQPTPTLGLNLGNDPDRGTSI
Assay: TEVC of constitutive current, Xenopus oocytes expressing GluD2-A654T-D535E
Type: cell-based
Conditions: for Effect on constitutive current, in words: compared to GluD2-A654T
Source text: Human GluD1 (GRID1) and rat GluD2 (Grid2) cDNAs were introduced into the pGEM-HE and pCI-neo vectors. GRID1 (NM_017551.3) gene fragments were synthesized by Integrated DNA Technologies and cloned into empty vectors using InFusion cloning (Clontech). […] However, rat and human GluD2-encoding cDNA are identical in the M3 domain in which many of the variants we studied reside (see Supplementary Fig. S1). The full open reading frame for both constructs were verified by Sanger sequencing (Eurofins) and the full plasmid sequence was verified by whole plasmid sequencing (plasmidsaurus). Variant cDNA changes identified in patients were introduced into the cloned human GRID1 (NM_017551.3) in pGEM-HE and cloned rat Grid2 cDNA sequence (NM_024379.1) in pGEM-HE vector using Quikchange Lightning (Agilent) protocol according to the manufacturer’s instructions. Vectors were linearized and cRNA was synthesized using T7 RNA mMESSAGE kit (Invitrogen).
Xenopus laevis oocytes were prepared from ovaries purchased from Xenopus 1 (Dexter, MI) as previously described, [68] and incubated at 16°C in culture Barth’s solution (in mM) 88 NaCl, 2.4 NaHCO3, 1 KCl, 0.33 Ca(NO3)2, 0.41 CaCl2, 0.82 MgSO4, 10 HEPES, pH 7.4 with NaOH, supplemented with 1 U/ml penicillin and 1 μg/ml streptomycin. Oocytes were injected with approximately 5–40 ng RNA per oocyte and then incubated at 16–19°C for 1–3 days in culture Barth’s solution. […] Two-electrode voltage clamp (TEVC) recordings were performed as previously described. Unless otherwise specified, extracellular solution contained (in mM) 90 NaCl, 3 KCl, 0.5 BaCl2, 0.01 EDTA, 10 HEPES, and was brought to pH 7.4 with NaOH. The oocytes were placed in a dual track recording chamber and gravity perfused with solution exchange controlled via a computer-driven 8-valve positioner (Digital MVP Valve). […] Recording electrodes were filled with 0.3 M KCl, and currents were recorded with membrane voltage held at −40 mV. To establish constitutive activity of recombinant receptors when compared to wild type receptors, we used the oocyte recording solution described above, but with 90 mM N-methyl-D-glucamine (NMDG) chloride replacing 90 mM NaCl. […] For Ca^2+ concentration-response curves, choline chloride was used to maintain equimolar concentrations of Cl^− ions in the extracellular solution across the changing concentrations of calcium chloride. All compounds used in this study for concentration-response oocyte recordings were dissolved in deionized water as 50–100 mM stock solutions. In some rescue pharmacology experiments, we substituted 1 mM CaCl2 for 0.5 mM BaCl2 to evaluate Ca^2+-dependent control of receptor responses.
Data are represented as mean ± SEM. Statistical significance of logEC50 or logIC50 was determined by one-way analysis of variance (ANOVA) with a Dunnett’s multiple comparisons post-hoc test with a significance threshold of P < 0.05. Sample sizes were adjusted so that the power to detect an effect size of 1 was > 0.9 (GPower 3.1). All error bars on figures represent the SEM.

Row | EC50 (modulation of constitutive current, inhibited by Ca2+ (not potentiated), read-out: Ca2+ EC50 [95% CI]) | Ca2+ % Max (NMDG+ − Na+) Mean ± SEM (normalized to NMDG+ − Na+ difference current) | D-serine % Max (NMDG+ − Na+) Mean ± SEM (percent of constitutive leak current (NMDG+/Na+ difference current)) | SMILES | Effect on constitutive current, in words
1 | 5.6 mM | 70 ± 2.0 (15) % | – | [Ca+2] [Ca^2+] | weakly inhibited; also recorded: complete loss of Ca^2+ potentiation
2 | – | – | 60 ± 2.2 (15) % | N[C@H](CO)C(=O)O [D-serine] | modestly reduced D-serine potency
